Legend:
MES SA = test: Proliferation assay, MES SA cells; assay type: cell-based, human
Text: (§1) Cells: The human breast cancer cell lines MCF-7 and MCF-7 DX, were obtained from Dr. R. Supino (Laboratorio Oncologia, Milano, Italy); the murine 3LLD122 highly metastatic Lewis lung carcinoma cell line was obtained from Dr. Eisenbach L, the Weizmann Inst., Israel. The following cell lines were purchased from the ATCC, USA: CT-26, an N-nitroso-N-methylurethane-(NNMU) induced murine (BALB-C) colon carcinoma; Panc02, a mouse (C57/Bl) pancreas adenocarcinoma; HT-49, a human colorectal adenocarcinoma; LS1034, a multidrug resistant human colorectal carcinoma; BxPC-3 human pancreas adenocarcinoma; MES-SA and MES-SA-DXS, human uterine sarcoma sensitive and multidrug resistant, respectively; and Human prostate carcinoma 22RV1, a subclone of CWR22 cells.
(§2) The cells were maintained in DMEM growth medium supplemented with 10% heat inactivated fetal calf serum, 2 mM glutamine, penicillin (250 units/ml) and streptomycin (125 μg/ml) in a humidified 5% CO2/air atmosphere at 37° C.
(§3) Proliferation assay: cells at a density of 3-5×10^4 cells/ml in 200 μl medium supplemented with 10% FCS were seeded in tissue culture 96-well plates for 24 hours, and were then exposed for 72 hours to a novel derivative of a chemotherapeutic agent (in quadruplicate) as specified. After 3 days, the cells were rinsed with PBS, and fixed with ethanol (70%) for 30 minutes. The ethanol was thereafter discarded, 200 μl of 10 μg/ml HOECHST fluorescent dye (Sigma) solubilized in PBS were added and the fluorescence was measured at 390-460 nm with a FluoStar fluorometer. MTT solution (10 ml of 5 mg/ml MTT (Sigma) in PBS) was added, and the plate was incubated for 3 hours. Formazan crystals were dissolved with 140 ml of 0.04 HCl-isopropanol. The optical density of the wells was measured with a microplate reader at 540 nm.
(§4) IC50 and IC90 values were determined from the best-fitted curve where the percentages of survival were 50 or 90 respectively.

CT-26 = test: Proliferation assay, CT-26 cells; assay type: cell-based, murine; settings: CT-26
Text: as §1, §2, §3, §4

MES SA DXS = test: Proliferation assay, MES SA DXS cells; assay type: cell-based, human; settings: for IC50 / IC90: MES SA DXS
Text: as §1, §2, §3, §4

LS-1034 = test: Proliferation assay, LS-1034 cells; assay type: cell-based, human
Text: as §1, §2, §3, §4

various cell lines = test: Dose response studies in various cell lines, absence and presence of semicarbazide; assay type: cell-based
Experimental: as §3
Semicarbazide sensitive amine oxidase is a source of formaldehyde and is therefore a marker for the effect of formaldehyde. It has been shown that semicarbazide traps formaldehyde and reduces its concentration inside the cell (Nudelman et al. J. Med. Chem., 2005, 48, 1047-1054). Thus, the critical role of formaldehyde can be confirmed by reversal of formaldehyde-mediated effects by the addition of semicarbazide.
Tables 3 and 4 below, as well as FIGS. 7A, 7B and 8A-8D present the dose response studies performed with various cell lines in the absence and presence of semicarbazide, the formaldehyde trapping agent.

BXPC-3 = test: Proliferation assay, BXPC-3 cells; assay type: cell-based, human
Text: as §1, §2, §3, §4

[1] = tested on: sensitive and resistant uterine cancer cells (MES-SA, MES-SA DXS); test: Proliferation/survival, sensitive and resistant uterine cancer cells (both lines); assay type: cell-based, human
Text: as §1, §3, §4

[2] = tested on: colon cancer cells (LS-1034 and HT-29); test: Survival of colon cancer cells (both lines); assay type: cell-based, human
Experimental: (§5) Cells: The human breast cancer cell lines MCF-7 and MCF-7 DX, were obtained from Dr. R. Supino (Laboratorio Oncologia, Milano, Italy); the murine 3LLD122 highly metastatic Lewis lung carcinoma cell line was obtained from Dr. Eisenbach L, the Weizmann Inst., Israel. […]
(§6) Proliferation assay: cells at a density of 3-5×10^4 cells/ml in 200 μl medium supplemented with 10% FCS were seeded in tissue culture 96-well plates for 24 hours, and were then exposed for 72 hours to a novel derivative of a chemotherapeutic agent (in quadruplicate) as specified. […] The ethanol was thereafter discarded, 200 μl of 10 μg/ml HOECHST fluorescent dye (Sigma) solubilized in PBS were added and the fluorescence was measured at 390-460 nm with a FluoStar fluorometer. […] The optical density of the wells was measured with a microplate reader at 540 nm.
as §4

HT-29 = test: Proliferation assay, HT-29 cells; assay type: cell-based, human
histone acetylation = test: Histone acetylation in treated cells; assay type: cell-based
Experimental: Western blot analysis: Whole cell tissue lysates or acid extracted histones were solubilized in a 4-fold concentrated sample buffer and […] protein samples were separated by SDS-PAGE. The proteins were transferred to a nitrocellulose membrane (Schleicher & Schuell, Germany) and probed with the primary antibodies as indicated, followed by incubation with an HRP-goat anti-rabbit IgG secondary antibody. Visualization of the bound HRP-goat anti-rabbit IgG was performed using the enhanced chemiluminescence that was done using Western Blotting Luminol reagent (cat No. SC-2048, Santa Cruz, Calif., US). Equal amounts of reagent A and B were mixed, and added to the nitrocellulose membrane for 1 minute. Excess liquid was absorbed and the membrane was exposed for 5 minutes to Chemiluminescence BioMax light film (cat. No. 868 9358, Kodak, USA). The intensity of the bands was measured with a Versa Doc instrument with Quantityl program (Bio-Rad, USA). The fold increase of each specific protein was determined by the ratio of band intensities of treated and untreated cells, normalized to loading control (actin or histone H3).

colon carcinoma cells = test: Viability of colon carcinoma cells (FIG. 12); assay type: cell-based
Experimental: as §3
Apoptosis assay: Cells (2×10^5 cells/ml) were seeded in 24-well plates and incubated with a derivative of a chemotherapeutic agent according to the present embodiments, as specified, for 24 hours. The cells were thereafter collected and double-stained with annexin V-FITC and propidium iodide, according to the manufacturer's instructions (MBL, Japan). Alive, apoptotic and total dead cells were quantitated by flow cytometry using a FACS calibur cytometer (Becton Dickinson).

Panc 02 = test: Proliferation assay, Panc 02 cells; assay type: cell-based; settings: Mus musculus, Panc02
Text: as §1, §2, §3, §4

[3] = tested on: prostate carcinoma cells 22RV; test: Viability of prostate carcinoma cells 22RV; assay type: cell-based, human
Experimental: as §5, §6
Apoptosis assay: Cells (2×10^5 cells/ml) were seeded in 24-well plates and incubated with a derivative of a chemotherapeutic agent according to the present embodiments, as specified, for 24 hours. […] Alive, apoptotic and total dead cells were quantitated by flow cytometry using a FACS calibur cytometer (Becton Dickinson).

MCF-7 DX = test: Proliferation assay, MCF-7 DX cells; assay type: cell-based, human
Experimental: as §5, §6, §4

[4] = tested on: HT-29 human colon carcinoma; test: Xenograft flank colon carcinoma model, HT29; assay type: in vivo; settings: nude mice
Experimental: Xenograft flank colon carcinoma models: Eight weeks old, male CD1 nude mice (Harlan, Israel) were inoculated sc in the flanks with 5×10^6 HT29 or LS1034 cells. When tumor volume reached 50-100 mm^3, treatment with derivatives of chemotherapeutic agents according to the present embodiments commenced and was given by gavage five times a week for the duration of the experiment at the specified doses. Tumor volume (determined by caliper) and body weights were measured twice weekly. Tumor volume was measured (mm) using the formula for an ellipsoid sphere: Length×Width^2/2=Volume (mm)^3 This commonly used formula was also used to calculate tumor weight, assuming unit density (1 mm^3=1 mg). Serum PSA or CEA: […] At the end of the experiment blood samples were drawn from the eyes of mice (anesthetized slightly by inhalation of ether) or from the hearts of sacrificed animals.

[5] = Homo sapiens, tegafur value calculated by extrapolation from the best fitted curve

Structure (SMILES): CCCC(=O)OCn1c(=O)c(F)cn(C2CCCO2)c1=O [AN-420, 5-fluoro-2,3-dihydro-3-((R)-tetrahydrofuran-2-yl)-2,6-dioxopyrimidin-1(6H)-yl)methyl butyrate]
- IC50 (MES SA; + SC 500 μM): 92 ± 14 µM
- IC90 (MES SA; + SC 500 μM): 214 ± 80 µM
- IC50 (MES SA; Homo sapiens): 79 ± 22 µM
- IC90 (MES SA; Homo sapiens): 177 ± 77 µM
- IC50 (CT-26; + SC 500 μM): 34 ± 10 µM
- IC90 (CT-26; + SC 500 μM): 94 ± 30 µM
- IC50 (CT-26; Mus musculus, CT26): 27 ± 4 µM
- IC90 (CT-26; Mus musculus, CT26): 76 ± 14 µM
- IC50 (MES SA DXS; Homo sapiens): 54 ± 5 µM
- IC90 (MES SA DXS; Homo sapiens): 95 ± 8 µM
- IC50 (MES SA DXS; + SC 500 μM): 115 ± 29 µM
- IC90 (MES SA DXS; + SC 500 μM): 312 ± 116 µM
- IC90 (LS-1034; Homo sapiens, LS-1034): 79 ± 23 µM
- IC50 (LS-1034; Homo sapiens, LS-1034, LS-1034): 42 ± 7 µM
- IC50 (LS-1034; LS-1034, + SC 500 μM): 52 ± 8 µM
- IC90 (LS-1034; LS-1034, + SC 500 μM): 105 ± 29 µM
- reduction of cell killing by co-treatment with semicarbazide (various cell lines; semicarbazide 0.5 mM): substantially reduced the cell killing
- IC50 (BXPC-3; + SC 500 μM): 88 ± 6 µM
- IC90 (BXPC-3; + SC 500 μM): 280 ± 36 µM
- IC50 (BXPC-3; Homo sapiens): 74 ± 4 µM
- IC90 (BXPC-3; Homo sapiens): 141 ± 5 µM
- maximal cell killing achieved [1]: 100%
- fold more potent than tegafur, based on IC90 values [2]: ≥ 10 fold
- IC90 (HT-29; HT-29, + SC 500 μM): 138 ± 30 µM
- IC50 (HT-29; HT-29, + SC (semicarbazide) 500 μM): 51 ± 5 µM
- IC90 (HT-29; Homo sapiens, HT-29): 84 ± 21 µM
- IC50 (HT-29; Homo sapiens, HT-29, HT-29): 35 ± 5 µM
- histone acetylation in treated cells (histone acetylation): increase of histone acetylation
- effect on cancer cell viability (% of control) (colon carcinoma cells): significantly more effective than tegafur
- IC50 (Panc 02): 46 ± 3 µM
- IC90 (Panc 02): 149 ± 19 µM

Structure (SMILES): CCCC(=O)OCN1C(=O)CCC(N2C(=O)c3ccccc3C2=O)C1=O (stereo not drawn) [AN-438, 2-(1-butroyloxymethyl-2,6-dioxopiperidin-3-yl)isoindoline-1,3-dione]
- reduction of viability compared with thalidomide (HT-29; human colon cells HT-29): significantly more effective in reducing the viability
- reduction of viability compared with thalidomide ([3]; prostate carcinoma cells 22RV): significantly more effective in reducing the viability
- effect on viability on addition of semicarbazide ([3]; prostate carcinoma cells, 0.5 mM semicarbazide): abrogated the effect

Structure (SMILES): CCCC(=O)OCn1c(=O)cc[nH]c1=O [AN-439, (2,3-Dihydro-2,6-dioxopyrimidin-1(6H)-yl)methyl butyrate]
- effect on cancer cell viability (% of control) (colon carcinoma cells): reduced cell viability in a dose dependent manner

Structure (SMILES): COc1cccc2c1C(=O)c1c(O)c3c(c(O)c1C2=O)C[C@@](O)(C(=O)CO)C[C@@H]3O[C@H]1C[C@H](N)[C@H](O)[C@H](C)O1 [Doxorubicin]
- fold decrease in the inhibitory effect on proliferation, MES-SA DXS compared with the isogenetic non-resistant cell line (MES SA DXS): approximately 30 fold
- fold more resistant to doxorubicin, MCF-7 DX compared with MCF cells (MCF-7 DX): approximately 7 fold
- IC50 (MCF-7 DX; Homo sapiens, MCF7/DX, MCF-7 DX, 7 independent experiments): 392 ± 40 µM

Structure (SMILES): NNC(N)=O [Semicarbazide, semicarbazide, reference compound]
- effect of semicarbazide alone on the cells (various cell lines; 0.5 mM, absence of chemotherapeutic agents): did not affect the cells

Structure (SMILES): O=c1[nH]c(=O)n(C2CCCO2)cc1F (stereo not drawn) [Tegafur, tegafur, reference compound]
- IC50 (MES SA; Homo sapiens): 337 ± 20 µM
- IC90 (MES SA; [5]): 1200 ± 97 µM
- IC50 (CT-26; Mus musculus, CT26): 136 ± 19 µM
- IC90 (CT-26; Mus musculus, CT26): 411 ± 23 µM
- IC50 (MES SA DXS; Homo sapiens): 405 ± 20 µM
- IC90 (MES SA DXS; [5]): 1470 ± 96 µM
- IC90 (LS-1034; Homo sapiens, LS-1034): 1600 ± 240 µM
- IC50 (LS-1034; Homo sapiens, LS-1034, LS-1034): 519 ± 93 µM
- CEA level in serum [4]: higher
- tumor growth inhibition ([4]; P<<0.001): substantially inhibited tumor growth
- IC50 (BXPC-3; Homo sapiens): 172 ± 21 µM
- IC90 (BXPC-3; Homo sapiens): 688 ± 113 µM
- maximal cell killing achieved [1]: 80%
- IC90 (HT-29; Homo sapiens, HT-29): 747 ± 52 µM
- IC50 (HT-29; Homo sapiens, HT-29, HT-29): 201 ± 15 µM
- IC50 (Panc 02): 179 ± 25 µM
- IC90 (Panc 02): 637 ± 66 µM

Structure (SMILES): O=c1cc[nH]c(=O)[nH]1 [uracil, reference compound]
- effect on cancer cell viability (% of control) (colon carcinoma cells): no effect

From US20070293517A1, “Derivatives Of Chemotherapeutic Agents With A Formaldehyde Releasing Moiety” (RAMOT AT TEL AVIV UNIVERSITY LTD., priority 2004, published 2007)
